In patent publication US4980377A, “1-(aminophenyl)-2-aminopropanone derivatives” (Laboratoire L. Lafon, priority 1984, dated 1990):
“Also recorded” adds a separate entry of the source.

How the values were obtained:
mice [1] = experiment: Interaction with oxotremorine; assay type: in vivo, mouse; details: i.p.
Procedure: CRL 41 153 is administered to groups of 6 mice 0.5 hour before the intraperitoneal injection of 0.5 mg/kg of oxotremorine.

mice [2] = experiment: Motility reduced by hypoxic aggression; assay type: in vivo, mouse; details: i.p.
Procedure: Half an hour after they have received CRL 41 153, the mice (10 per dose, 20 control animals) are subjected to acute hypobaric anoxia [pressure reduction of 600 mm Hg (i.e. about 8×10^4 Pa) in 90 seconds; release of vacuum in 45 seconds] and are then placed in an actimeter, where their motility is recorded for 10 minutes.

mice [3] = experiment: Interaction with apomorphine in mice; assay type: in vivo, mouse; details: i.p.
Procedure: Groups of 6 mice receive CRL 41 153 0.5 hour before the subcutaneous injection of 1 or 16 mg/kg of apomorphine.

CNS = experiment: Neuropsychopharmacological profile as a whole; assay type: in vivo, mice and rats
Procedure: (§1) In the neuropsychopharmacological study which follows, a solution of CRL 41 153 in distilled water (pH 1.5) was administered intraperitoneally in a volume of 20 ml/kg to male mice and 5 ml/kg to male rats.

mice [4] = experiment: Interaction with barbital; assay type: in vivo, mouse; details: i.p., barbital 220 mg/kg
Procedure: Half an hour after the administration of CRL 41 153, groups of 10 mice receive an intraperitoneal injection of barbital (220 mg/kg).

[5] = tested on: gravid White New Zealand female rabbits; experiment: Teratogenicity in gravid White New Zealand rabbits; assay type: in vivo, rabbit; details: day 5 to day 18 of gestation; for Affected foetuses, %: normal limit 1.5%
Procedure: The protocol used comprised administering to gravid White New Zealand female rabbits (weighing each about 2900-3000 grams before gestation) a daily dose of 0 (batch of control animals), 5,10 or 50 mg/kg of each product to be tested by gastrogavage from day 5 to day 18 of gestation, then carrying out a cesarean operation on day 29 of gestation in order to enumerate:
(i) the total number of foestuses, and
(ii) the total number of foestuses presenting at least one malformation.
To appreciate the results of such a protocol it must be noted that natural malformations may occur. Statistically, the percentage of foetuses presenting at least one malformation in any control batch of gravid White New Zealand female rabbits is lower than or equal to 1.5% with respect to the total number of foetuses.
To be precise in this protocol a malformation comprises at least one of the following cases: articular limb blocade, anorous foetus, deviated tail, shorter tail, skull deformation, exemcephalia.

mice [6] = experiment: Behavioral despair; assay type: in vivo, mouse; details: forcibly immersed mice, i.p.
Text: Half an hour after they have received CRL 41 153, groups of 6 mice are placed in a beaker filled with water to a height of 6 cm. The total period of immobility between the 2nd and 6th minutes following immersion is noted.

mice [7] = experiment: Overall behavior and reactivities in mice; assay type: in vivo, mouse; details: dose not stated
Procedure: as §1
(§2) Groups of three animals are observed before and then 0.25 hour, 0.50 hour, 1 hour, 2 hours, 3 hours and 24 hours after the administration of CRL 41 153.

[8] = pH of solutions in distilled water; assay type: physicochemical
Procedure: The neuropsychopharmacological study was undertaken according to the procedures described above for CRL 41 153, CRL 41 213 being adminstered intraperitoneally, in solution in distilled water, in a volume of 20 ml/kg to male mice and a volume of 5 ml/kg to male rats, and the pH of the injected solution varying with the concentration of CRL 41 213 according to the data given in Table II below.

rats [9] = experiment: Interaction with amphetamine; assay type: in vivo, rat; details: i.p.
Procedure: Amphetamine (2 mg/kg) is injected intraperitoneally into groups of 6 rats 30 minutes after the administration of CRL 41 153. […] 4 mg/kg and 16 mg/kg, CRL 41 153 potentiates the intensity and duration of the stereotypies induced by amphetamine.

mice [10] = experiment: Spontaneous motility; assay type: in vivo, mouse; details: i.p.
Procedure: 0.5 hour after they have received CRL 41 153, the mice (6 per dose, 12 control animals) are placed in an actimeter, where their motility is recorded for 30 minutes.

mice [11] = experiment: Interaction with reserpine; assay type: in vivo, mouse; details: i.p.
Procedure: Four hours after the intraperitoneal injection of 2.5 mg/kg of reserpine, groups of 6 mice receive CRL 41 153.

mice [12] = experiment: Motility reduced by habituation to the enclosure; assay type: in vivo, mouse; details: i.p.
Procedure: After they have stayed In the actimeters for 18 hours, (he mice (6 per dose, 12 control animals) receive CRL 41 153. They are immediately returned to their respective enclosures and, half an hour later, their motility is recorded for 30 minutes.

dogs = experiment: Cardiovascular study in anesthetized dogs; assay type: in vivo, dog
Procedure: Two dogs (average weight: 14.1 kg), anesthetized with nembutal, receive CRL 41 194 by intraduodenal administration at successive doses of 0.1 mg/kg, 0.5 mg/kg, 1 mg/kg, 2.5 mg/kg, 5 mg/kg and 10 mg/kg (in solution in physiological solvent).
The blood pressure, the heart rate, the blood flow through the femoral artery, the blood flow through the vertebral artery and the rectal temperature are measured. The coloration of the skin and the coloration of the bile, collected by catheterization of the bile duct after ligature of the cystic duct, are observed.
4 dogs (average weight: 14 kg), anesthetized with nembutal, receive CRL 41 221 by intraduodenal administration at successive doses of 0.1 mg/kg, 0.5 mg/kg, 1 mg/kg, 2.5 mg/kg, 5 mg/kg and 10 mg/kg. The blood pressure, the heart rate, the blood flow through the femoral artery, the blood flow through the vertebral artery and the rectal temperature are measured. The coloration of the skin is observed.

rats [13] = experiment: Interaction with apomorphine in rats; assay type: in vivo, rat; details: i.p.
Procedure: CRL 41 153 is administered to groups of 6 rats 0.5 hour before the subcutaneous injection of 0.5 mg/kg of apomorphine.

rats [14] = experiment: Overall behavior and reactivities in rats; assay type: in vivo, rat; details: dose not stated
Procedure: as §1, §2

[15] = 12.8 g/liter in distilled water
[16] = ≤0.05 g/liter in distilled water
[17] = anesthetized dogs, intraduodenal

Structure (SMILES)	Effect on hypothermic action of oxotremorine (mice [1])	Motor recovery of mice after hypobaric hypoxia (mice [2])	Effect on hypothermia induced by apomorphine (mice [3])	Antidepressant effects (overall) (CNS; conclusion of the tests)	Stimulant effects (overall) (CNS; conclusion of the tests)	Duration of the sleep induced by barbital (mice [4])	Affected foetuses, number ([5]; 5 mg/kg daily)	Total foetuses (live) ([5]; 5 mg/kg daily)	Affected foetuses, % ([5]; 5 mg/kg daily) [%]	Affected foetuses, number ([5]; 10 mg/kg daily)	Total foetuses (live) ([5]; 10 mg/kg daily)	Affected foetuses, % ([5]; 10 mg/kg daily) [%]	Period of immobility due to despair (mice [6])	Overall behavior: observed effects (summary) (mice [7])	Stereotype movements (summary) (mice [7])	pH ([8]; 0.1 g/liter in distilled water)	pH ([8]; 0.4 g/liter in distilled water)	pH ([8]; 0.8 g/liter in distilled water)	pH ([8]; 1.6 g/liter in distilled water)	pH ([8]; 6.4 g/liter in distilled water)	also measured
CC(C(=O)c1ccc(N)cc1)N(C)C (centres unmarked) [CRL 41 233]	antagonism of the hypothermia	improvement in the motor recovery	antagonism of the hypothermia	antidepressant and stimulant properties	antidepressant and stimulant properties	a decrease in the duration of the sleep induced by barbital	1	89	1.12	0	85	0	a decrease in the period of immobility	excitation with hyperreactivity in mice and rats	the presence of stereotype movements in mice and rats	5.0	4.0	3.5	3.0	2.0	pH ([8]; 0.2 g/liter in distilled water): 4.5; pH ([8]; 3.2 g/liter in distilled water): 2.5; pH [8, 15]: 1.5; pH ([8]; 50 g/liter in distilled water): 1.0; pH [8, 16]: 5.5; Effect on stereotypies induced by amphetamine (rats [9]): potentiation of the stereotypies; Spontaneous motor activity (mice [10]): an increase in the spontaneous motor activity of mice; Effect on hypothermia induced by reserpine (mice [11]): antagonism of the hypothermia; Motor activity of mice accustomed to their enclosure (mice [12]): resumption in the motor activity of mice accustomed to their enclosure; Vasodilator (conclusion) (dogs): vasodiating properties; also recorded: vasodilating properties; Rectal temperature (dogs; anesthetized dogs): large increase in the rectal temperature; Femoral flow (dogs; [17]): increases the femoral and vertebral flows as from a dose of 5 mg/kg; Heart rate (dogs; [17]): the tachycardiac effect appearing at 10 mg/kg; Vertebral flow (dogs; [17]): increases the femoral and vertebral flows as from a dose of 5 mg/kg; Effect on stereotypies induced by apomorphine (rats [13]): potentiation of the stereotypies; Overall behavior: observed effects (summary) (rats [14]): excitation with hyperreactivity in mice and rats; Stereotype movements (summary) (rats [14]): the presence of stereotype movements in mice and rats
CC(NC1CC1)C(=O)c1ccc(N)cc1 (centres unmarked) [CRL 41 246]	antagonism of the hypothermia	improvement in the motor recovery	antagonism of the hypothermia	antidepressant effects	stimulant effects	a reduction in the duration of the sleep induced by barbital	1	89	1.12	0	94	0	a reduction in the period of immobility	excitation with hyperreactivity in mice and rats	the presence of stereotype movements in mice and rats	5.0	4.5	4.0	3.5	3.0	Effect on trembling induced by oxotremorine (mice [1]): antagonism of the trembling induced by oxotremorine; α-adrenergic stimulant effects (overall) (CNS; conclusion of the tests): α-adrenergic stimulant effects; Peripheral α-adrenergic signs (mydriasis, salivation, lacrimation, exophthalmos) (CNS; species and dose not stated): mydriasis; also recorded: salivation; pH [8, 15]: 2.5; pH [8, 16]: 5.5; Effect on stereotypies induced by amphetamine (rats [9]): potentiation of the stereotypies; Spontaneous motor activity (mice [10]): an increase in the spontaneous motor activity of mice; Effect on hypothermia induced by reserpine (mice [11]): antagonism of the hypothermia; Effect on ptosis induced by reserpine (mice [11]): antagonism of the ptosis induced by reserpine; Motor activity of mice accustomed to their enclosure (mice [12]): resumption in the motor activity of mice accustomed to their enclosure; Vasodilator (conclusion) (dogs): vasodiating properties; Effect on stereotypies induced by apomorphine (rats [13]): potentiation of the stereotypies; Overall behavior: observed effects (summary) (rats [14]): excitation with hyperreactivity in mice and rats; Stereotype movements (summary) (rats [14]): the presence of stereotype movements in mice and rats
